Data as given in ChEMBL document CHEMBL6153082, “Macrocyclization as a Strategy for Kinetic Solubility Improvement: A Comparative Analysis of Matched Molecular Pairs” (J Med Chem, 2025).
≈ marks a conversion by molar mass, not a printed value.

Columns and labels:
[1] = Solubility of compound at pH 7.4; format: physicochemical; conditions: buffer
[2] = Metabolic stability in mouse liver microsomes assessed as half life in presence of NADPH incubated for 30 mins by LC-MS/MS analysis; format: ADME, Microsome
[3] = Unbound fraction in mouse microsome incubated for 4 hrs by LC-MS/MS analysis; format: ADME; conditions: microsomes
[4] = Lipophilicity, logD of the compound in n-octanol/aqueous at pH 7.4 incubated overnight by UPLC analysis; format: physicochemical
[5] = Efflux ratio in dog MDCK cells; format: ADME, cell-based, Canis lupus familiaris
[6] = Apparent permeability across apical to basolateral side in MDCK cells; format: ADME, cell-based, Canis lupus familiaris; conditions: dog
[7] = Apparent permeability across basolateral to apical side in MDCK cells; format: ADME, cell-based, Canis lupus familiaris; conditions: dog
[8] = Kinetic aqueous solubility of compound at pH 7.4 at 5 to 300 uM; format: physicochemical; conditions: dose 5-300 µM, read-out: Kinetic_solubility
[9] = Dissociation constant, pKa of the compound by potentiometric titration analysis; format: physicochemical

Compound	solubility [1] [µM]	half-life [2] [min]	fraction unbound at 4 h [3]	logD [4]	Ratio [5]	Papp [6]	Papp [7]	solubility kinetic [8] [µM]	efflux ratio [5]	Papp A→B [6] [×10⁻⁶ cm/s]	Papp B→A [7] [×10⁻⁶ cm/s]	pKa [9]
COc1cc2cc(c1OC)OC/C=C/COC(=O)[C@@H]1CCCCN1C(=O)[C@H]2C1CCCCC1								103 (≈ 47.1 µg/mL)				
C=CCOc1ccccc1CN(CC(=O)N1CCC(CC(=O)NC2CC2)CC1)C1CCN(C)CC1	244 (≈ 118 µg/mL)	120	0.76	0.5	2	1 10^-6 cm/s	11 10^-6 cm/s					
CCOc1ccccc1C(=O)N1CCN(C2CCCC2)C[C@@H]1C(=O)NC[C@@H]1CCCCO1	170 (≈ 75.4 µg/mL)	1	0.68	2.5	12	29 10^-6 cm/s	44 10^-6 cm/s					
CCC[C@@H](NC(=O)c1cccnc1OC)C(=O)N1CCC(CCN(CCOC)C2CCN(C)CC2)CC1	303 (≈ 157 µg/mL)	103	0.77	0.8	38	93 10^-6 cm/s	88 10^-6 cm/s					
C=CCOc1ccccc1CN(CC(=O)N1CCC(CC(=O)NC2CC2)CC1)C1CCCC1	192 (≈ 87.1 µg/mL)	5	1	1.8	4	3 10^-6 cm/s	68 10^-6 cm/s					
COc1cc2cc(c1OC)O[C@@H](C)CCn1cc(nn1)CCCCOC(=O)[C@@H]1CCCCN1C(=O)[C@H]2C1CCCCC1								100 (≈ 58.3 µg/mL)				
C=CCOc1ccccc1CN(CC(=O)N1CCC(CC(=O)NC2CC2)CC1)C(C)C	167 (≈ 71.4 µg/mL)	16	1	1	2	2 10^-6 cm/s	57 10^-6 cm/s					
CCOc1ccccc1C(=O)N1CCN(Cc2ccccc2)C[C@@H]1C(=O)NC[C@H]1CCCCO1	287 (≈ 134 µg/mL)	120	1	3.2	69	32 10^-6 cm/s	49 10^-6 cm/s					7.4

Other lines, results leading:

solubility [1] [µM]	half-life [2] [min]	fraction unbound at 4 h [3]	logD [4]	Ratio [5]	Papp [6]	Papp [7]	solubility kinetic [8] [µM]	efflux ratio [5]	Papp A→B [6] [×10⁻⁶ cm/s]	Papp B→A [7] [×10⁻⁶ cm/s]	pKa [9]	Compound
303 (≈ 134 µg/mL)	120	0.68	2.5	29	32 10^-6 cm/s	50 10^-6 cm/s						CCOc1ccccc1C(=O)N1CCN(C2CCCC2)C[C@@H]1C(=O)NC[C@H]1CCCCO1
303 (≈ 143 µg/mL)	7.4		1.5					5.4	10	56		CCC[C@H]1NC(=O)c2cccnc2OCCOCCN(C2CCCC2)CC2CCN(CC2)C1=O
							45 (≈ 20.8 µg/mL)					CCCOC(=O)[C@@H]1CCCCN1C(=O)[C@H](c1cc(OC)c(OC)c(OC)c1)C1CCCCC1
							137 (≈ 63 µg/mL)					COc1cc2cc(OC)c1OCCCCOC(=O)[C@@H]1CCCCN1C(=O)[C@H]2C1CCCCC1
							65 (≈ 37.1 µg/mL)					CCCc1cn(CCCOc2cc([C@@H](C(=O)N3CCCC[C@H]3C(=O)OC)C3CCCCC3)cc(OC)c2OC)nn1
83.5 (≈ 39.7 µg/mL)	1	0.57	3.8	66	8 10^-6 cm/s	33 10^-6 cm/s						C=CCOc1ccccc1CN(CC(=O)N1CCC(CC(=O)NC2CC2)CC1)Cc1ccccc1
							12 (≈ 5.51 µg/mL)					C=CCOC(=O)[C@@H]1CCCCN1C(=O)[C@H](c1cc(OC)c(OC)c(OC)c1)C1CCCCC1
237 (≈ 110 µg/mL)	1	1	3.2	21	33 10^-6 cm/s	49 10^-6 cm/s					7.4	CCOc1ccccc1C(=O)N1CCN(Cc2ccccc2)C[C@@H]1C(=O)NC[C@@H]1CCCCO1
							65 (≈ 38 µg/mL)					CCCc1cn(CC[C@H](C)Oc2cc([C@@H](C(=O)N3CCCC[C@H]3C(=O)OC)C3CCCCC3)cc(OC)c2OC)nn1
							100 (≈ 56.9 µg/mL)					COc1cc2cc(c1OC)OCCCn1cc(nn1)CCCCOC(=O)[C@@H]1CCCCN1C(=O)[C@H]2C1CCCCC1
